Test results: US20170008888A1 (KYORIN PHARMACEUTICAL CO., LTD., priority 2014, published 2017)

Key:
[1] = target: T1, BRD3 (Homo sapiens, UniProt Q15059); experiment: Bromodomain binding assay: BRD3
T1 construct: read out by qPCR of the phage DNA
Description: (§1) T7 phage strains displaying bromodomains were grown in parallel in 24-well blocks in an E. coli host derived from the BL21 strain. E. coli were grown to log-phase and infected with T7 phage from a frozen stock (multiplicity of infection=0.4) and incubated with shaking at 32° C. until lysis (90-150 minutes). The lysates were centrifuged (5,000×g) and filtered (0.2 μm) to remove cell debris. […] The liganded beads were blocked with excess biotin and washed with blocking buffer (SeaBlock (Pierce), 1% BSA, 0.05 Tween 20, 1 mM DTT) to remove unbound ligand and to reduce non-specific phage binding. […] Test compounds (T62 and 46) were prepared as 1000× stocks in 100% DMSO and subsequently diluted 1:10 in monoethylene glycol (MEG) to create stocks at 100× the screening concentration (resulting stock solution is 10% DMSO/90% MEG). The compounds were then diluted directly into the assays such that the final concentration of DMSO and MEG were 0.1% and 0.9%, respectively. All reactions were performed in polystyrene 96-well plates in a final volume of 0.135 ml. […] The bromodomain concentration in the eluates was measured by qPCR. Compounds were assayed for binding activity against a panel of 40 bromodomain-containing proteins.

[2] = target: T2, PBRM1 (Homo sapiens, UniProt Q86U86); experiment: Bromodomain binding assay: PBRM1
T2 construct: read out by qPCR of the phage DNA
T2 sequence (Q86U86 whole entry): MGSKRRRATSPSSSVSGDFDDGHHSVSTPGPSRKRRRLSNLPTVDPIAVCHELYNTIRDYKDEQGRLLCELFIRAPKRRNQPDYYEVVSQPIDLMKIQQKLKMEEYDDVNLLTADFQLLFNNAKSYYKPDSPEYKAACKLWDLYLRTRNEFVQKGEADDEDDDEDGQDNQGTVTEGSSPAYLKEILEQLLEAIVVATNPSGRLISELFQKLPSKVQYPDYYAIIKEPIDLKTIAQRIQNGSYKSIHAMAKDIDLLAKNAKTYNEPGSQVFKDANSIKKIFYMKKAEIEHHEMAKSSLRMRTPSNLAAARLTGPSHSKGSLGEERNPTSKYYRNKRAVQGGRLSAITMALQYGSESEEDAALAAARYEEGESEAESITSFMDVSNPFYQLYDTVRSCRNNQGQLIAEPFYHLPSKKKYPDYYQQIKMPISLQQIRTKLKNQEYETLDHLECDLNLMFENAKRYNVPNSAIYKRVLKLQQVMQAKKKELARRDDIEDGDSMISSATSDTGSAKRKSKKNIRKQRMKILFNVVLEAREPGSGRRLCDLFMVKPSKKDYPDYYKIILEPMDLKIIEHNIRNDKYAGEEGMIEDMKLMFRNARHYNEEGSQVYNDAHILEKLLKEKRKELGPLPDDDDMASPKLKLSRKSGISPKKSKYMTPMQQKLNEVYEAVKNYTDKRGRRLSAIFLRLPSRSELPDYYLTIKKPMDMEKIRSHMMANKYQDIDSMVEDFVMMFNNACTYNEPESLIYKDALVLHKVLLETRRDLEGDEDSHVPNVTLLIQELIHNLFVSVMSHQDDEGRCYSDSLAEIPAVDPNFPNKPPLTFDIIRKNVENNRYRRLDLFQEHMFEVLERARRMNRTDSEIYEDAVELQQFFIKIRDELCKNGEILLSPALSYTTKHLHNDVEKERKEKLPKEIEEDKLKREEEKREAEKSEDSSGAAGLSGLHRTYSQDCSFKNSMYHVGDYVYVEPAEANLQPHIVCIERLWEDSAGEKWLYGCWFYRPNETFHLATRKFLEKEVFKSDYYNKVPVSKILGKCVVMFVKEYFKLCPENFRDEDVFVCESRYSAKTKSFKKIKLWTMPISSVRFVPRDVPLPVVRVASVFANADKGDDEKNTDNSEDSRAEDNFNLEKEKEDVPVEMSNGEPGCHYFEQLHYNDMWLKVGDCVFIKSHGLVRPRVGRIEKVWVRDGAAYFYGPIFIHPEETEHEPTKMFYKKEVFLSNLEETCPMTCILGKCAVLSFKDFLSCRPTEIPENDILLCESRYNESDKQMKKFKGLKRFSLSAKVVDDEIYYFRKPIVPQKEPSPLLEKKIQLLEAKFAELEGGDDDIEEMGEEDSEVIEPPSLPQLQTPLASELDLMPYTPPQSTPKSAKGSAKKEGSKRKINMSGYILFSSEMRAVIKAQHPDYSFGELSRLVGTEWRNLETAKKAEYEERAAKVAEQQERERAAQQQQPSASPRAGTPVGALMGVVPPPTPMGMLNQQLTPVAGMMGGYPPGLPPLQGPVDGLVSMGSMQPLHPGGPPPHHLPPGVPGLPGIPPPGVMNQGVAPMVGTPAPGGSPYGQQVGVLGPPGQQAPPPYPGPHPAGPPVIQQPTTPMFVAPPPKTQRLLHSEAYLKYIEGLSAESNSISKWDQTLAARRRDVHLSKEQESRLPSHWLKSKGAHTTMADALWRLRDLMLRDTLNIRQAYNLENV
Description: as §1

[3] = target: T3, SMARCA4 (Homo sapiens, UniProt P51532); experiment: Bromodomain binding assay: SMARCA4
T3 construct: made in house; host or cells: E. coli host derived from the BL21 strain (T7 phage lysate)
T3 sequence (P51532 1453-1564 limits assumed): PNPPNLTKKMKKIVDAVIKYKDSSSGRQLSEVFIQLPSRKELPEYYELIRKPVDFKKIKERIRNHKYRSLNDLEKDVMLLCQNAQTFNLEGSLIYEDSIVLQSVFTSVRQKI
Description: as §1

[4] = target: T4, BRD8 (Homo sapiens, UniProt Q9H0E9); experiment: Bromodomain binding assay: BRD8
T4 construct: read out by qPCR of the phage DNA
T4 sequence (Q9H0E9 whole entry): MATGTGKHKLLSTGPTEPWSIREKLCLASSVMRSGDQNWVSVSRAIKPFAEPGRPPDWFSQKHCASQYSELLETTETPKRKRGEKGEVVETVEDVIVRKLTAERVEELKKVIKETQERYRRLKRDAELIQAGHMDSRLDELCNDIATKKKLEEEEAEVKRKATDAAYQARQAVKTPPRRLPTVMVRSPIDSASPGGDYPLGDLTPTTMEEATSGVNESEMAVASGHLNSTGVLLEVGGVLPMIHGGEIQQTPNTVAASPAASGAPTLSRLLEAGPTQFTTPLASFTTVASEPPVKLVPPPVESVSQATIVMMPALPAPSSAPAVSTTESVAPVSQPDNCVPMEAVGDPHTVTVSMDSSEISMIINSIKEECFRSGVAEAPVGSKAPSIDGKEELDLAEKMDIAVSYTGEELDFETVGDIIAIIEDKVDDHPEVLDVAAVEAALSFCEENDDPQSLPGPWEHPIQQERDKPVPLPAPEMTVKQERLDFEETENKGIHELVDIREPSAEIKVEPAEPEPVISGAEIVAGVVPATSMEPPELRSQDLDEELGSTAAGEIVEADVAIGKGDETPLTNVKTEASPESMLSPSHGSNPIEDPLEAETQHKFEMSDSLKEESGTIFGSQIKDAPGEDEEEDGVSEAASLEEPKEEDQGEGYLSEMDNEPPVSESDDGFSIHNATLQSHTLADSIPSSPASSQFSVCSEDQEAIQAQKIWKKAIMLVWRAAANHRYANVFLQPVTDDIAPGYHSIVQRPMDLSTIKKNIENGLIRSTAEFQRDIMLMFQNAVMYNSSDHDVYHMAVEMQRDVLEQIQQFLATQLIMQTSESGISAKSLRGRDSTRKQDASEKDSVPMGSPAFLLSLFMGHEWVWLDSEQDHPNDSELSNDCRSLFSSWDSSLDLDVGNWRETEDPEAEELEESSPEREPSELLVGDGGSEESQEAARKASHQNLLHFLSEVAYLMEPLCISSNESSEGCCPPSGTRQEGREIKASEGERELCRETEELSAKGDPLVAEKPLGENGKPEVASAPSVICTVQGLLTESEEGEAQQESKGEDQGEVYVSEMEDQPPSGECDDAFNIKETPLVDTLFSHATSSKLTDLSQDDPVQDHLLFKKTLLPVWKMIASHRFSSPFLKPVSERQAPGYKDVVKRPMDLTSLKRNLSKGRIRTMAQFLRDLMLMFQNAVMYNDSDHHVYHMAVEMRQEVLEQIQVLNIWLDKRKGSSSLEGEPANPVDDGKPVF
Description: as §1

[5] = target: T5, CECR2 (Homo sapiens, UniProt Q9BXF3); experiment: Bromodomain binding assay: CECR2
T5 construct: T7 phage strains displaying bromodomains were grown in parallel; made in house; host or cells: E. coli host derived from BL21, infected with T7 phage
T5 sequence (Q9BXF3 434-538 limits assumed, species assumed): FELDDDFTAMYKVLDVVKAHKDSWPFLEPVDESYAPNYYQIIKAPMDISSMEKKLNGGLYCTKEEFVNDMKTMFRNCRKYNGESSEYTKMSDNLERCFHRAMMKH
Description: as §1

T1 sequence (Q15059 whole entry): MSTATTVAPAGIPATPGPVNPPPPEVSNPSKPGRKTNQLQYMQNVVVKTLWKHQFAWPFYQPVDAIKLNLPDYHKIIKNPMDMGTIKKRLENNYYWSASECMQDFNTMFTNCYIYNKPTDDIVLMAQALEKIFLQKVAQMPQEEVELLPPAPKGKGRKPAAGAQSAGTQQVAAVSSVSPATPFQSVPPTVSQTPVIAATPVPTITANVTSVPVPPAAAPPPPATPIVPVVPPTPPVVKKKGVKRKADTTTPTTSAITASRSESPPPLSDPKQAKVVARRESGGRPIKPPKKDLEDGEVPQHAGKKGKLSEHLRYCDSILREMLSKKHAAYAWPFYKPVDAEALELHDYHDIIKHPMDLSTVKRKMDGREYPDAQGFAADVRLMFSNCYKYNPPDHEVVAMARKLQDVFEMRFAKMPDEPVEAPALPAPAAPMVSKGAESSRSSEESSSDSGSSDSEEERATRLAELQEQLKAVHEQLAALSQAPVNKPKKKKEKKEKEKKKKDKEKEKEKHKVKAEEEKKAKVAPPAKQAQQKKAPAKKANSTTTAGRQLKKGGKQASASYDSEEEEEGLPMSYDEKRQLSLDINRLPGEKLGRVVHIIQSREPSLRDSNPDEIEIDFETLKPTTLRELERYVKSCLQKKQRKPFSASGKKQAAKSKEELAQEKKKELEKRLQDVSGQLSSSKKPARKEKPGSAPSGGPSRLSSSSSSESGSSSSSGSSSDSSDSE

Row | Kd [1] [nM] | Kd [2] [µM] | Kd [3] [µM] | Kd [4] [µM] | Kd [5] [µM] | SMILES
1 | 33 | > 20 | > 20 | > 20 | > 20 | CCOc1cc(C(=O)N2CCC(N3CCCC3)CC2)ccc1Nc1cc2c(cn1)N(C)C(=O)c1ccccc1N2C [Compound 46, 3-(2-Ethoxy-4-(4-(pyrrolidin-1-yl)piperidine-1-carbonyl)phenylamino)-5,11-dimethyl-5H-benzo[e]pyrido[3,4-b][1,4]diazepin-10(11H)-one]
2 | 110 | > 20 | > 20 | > 20 | > 20 | CCOc1cc(C(=O)N[C@H]2CC[C@H](O)CC2)ccc1Nc1cc2c(cn1)N(C)C(=O)c1ccccc1N2C [Compound T62]
